From paper PMC8474116, “Discovery of Novel Acetamide-Based Heme Oxygenase-1 Inhibitors with Potent In Vitro Antiproliferative Activity” (Journal of Medicinal Chemistry, 2021)

Assays:
HO-1 = molecular target: T1, HO-1 (Rattus norvegicus, UniProt P06762); assay: HO-1 enzymatic activity, rat spleen microsomal fraction (bilirubin formation); type: biochemical; settings: for IC50: rat spleen microsomal fraction, mean of triplicate ± SD; for SI (HO-2/HO-1): ratio of HO-2 and HO-1 IC50
T1 construct: selected to use the most native (i.e., closest to in vivo) forms of HO-1 and HO-2; from tissue; host or cells: rat spleen (male Sprague-Dawley), microsomal fraction
T1 sequence (P06762 1-289): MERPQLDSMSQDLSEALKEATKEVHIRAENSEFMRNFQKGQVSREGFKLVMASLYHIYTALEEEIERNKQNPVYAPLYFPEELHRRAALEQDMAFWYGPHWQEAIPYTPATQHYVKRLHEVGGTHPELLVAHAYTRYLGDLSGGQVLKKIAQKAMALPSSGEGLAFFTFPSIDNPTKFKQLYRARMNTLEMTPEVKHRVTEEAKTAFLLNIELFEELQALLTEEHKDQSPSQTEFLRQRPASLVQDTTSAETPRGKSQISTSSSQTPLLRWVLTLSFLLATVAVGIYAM
Experimental: (§1) HO-1 and HO-2 were obtained, respectively, from the rat spleen and brain as the microsomal fraction prepared by differential centrifugation; the dominance of HO-1 protein in the rat spleen and HO-2 in the rat brain has been well documented.[24] These particular microsomal preparations were selected to use the most native (i.e., closest to in vivo) forms of HO-1 and HO-2. Spleen and brain (Sprague-Dawley rats) microsomal fractions were prepared according to the procedure outlined by Ryter et al.[2] The experiments reported in the present paper complied with the current Italian law and met the guidelines of the Institutional Animal Care and Use Committee of the Ministry of Health (Directorate General for Animal Health and Veterinary Medicines, Italy) “Dosing of enzymatic activities in rat microsomes” (2018–2022), project code 02769.N.VLY. The experiments were performed in male Sprague-Dawley albino rats (150 g body weight and age 45 d). They had free access to water and were kept at room temperature with a natural photoperiod (12 h light–12 h dark cycle). For measuring HO-1 and HO-2 activities, each rat was sacrificed and their spleen and brain were excised and weighed. A homogenate (15%, w/v) of spleens and brains pooled from four rats was prepared in ice-cold HO-homogenizing buffer (50 mM Tris buffer, pH 7.4, containing 0.25 M sucrose) using a Potter–Elvehjem homogenizing system with a Teflon pestle. The microsomal fraction of rat spleen and brain homogenate was obtained by centrifugation at 10 000g for 20 min at 4 °C, followed by centrifugation of the supernatant at 100 000g for 60 min at 4 °C. The 100 000g pellet (microsomes) was resuspended in 100 mM of potassium phosphate buffer, pH 7.8, containing 2 mM MgCl2 with a Potter–Elvehjem homogenizing system. The rat spleen and brain microsomal fractions were divided into equal aliquots, placed into microcentrifuge tubes, and stored at −80 °C for up to 2 months.
(§2) Liver cytosol has been used as a source of biliverdin reductase. Rat liver was perfused through the hepatic portal vein with cold 0.9% NaCl; then, it was cut and flushed with 2 × 20 mL of ice-cold PBS to remove all of the blood. Liver tissue was homogenized in 3 volumes of a solution containing 1.15% KCl w/v and Tris buffer 20 mM, pH 7.8 on ice. Homogenates were centrifuged at 10 000g for 20 min at 4 °C. The supernatant was decanted and centrifuged at 100 000g for 1 h at 4 °C to sediment the microsomes. The 100 000g supernatant was saved and then stored in small amounts at −80 °C after its protein concentration was measured.
(§3) The HO-1 and HO-2 activities were determined by measuring the bilirubin formation using the difference in absorbance at 464–530 nm, as described by Ryter et al.[2] Reaction mixtures (500 μL) consisted of 20 mM of Tris–HCl, pH 7.4, (1 mg/mL) microsomal extract, 0.5–2 mg/mL of biliverdin reductase, 1 mM of NADPH, 2 mM of glucose 6-phosphate (G6P), 1 U of G6P dehydrogenase, 25 μM of hemin, and 10 μL of DMSO (or the same volume of DMSO solution of test compounds to a final concentration of 100, 10, and 1 μM). Incubations were carried out for 60 min at 37 °C in a circulating water bath in the dark. Reactions were stopped by adding the same volume of chloroform. After recovering the chloroform phase, the amount of bilirubin formed was measured with a double-beam spectrophotometer as OD464–530 nm (extinction coefficient, 40 mM/cm^–1 for bilirubin). One unit of the enzyme was defined as the amount of enzyme catalyzing the formation of 1 nmol of bilirubin/mg protein/h.

HO-2 = molecular target: T2, HO-2 (Rattus norvegicus, UniProt P23711); assay: HO-2 enzymatic activity, rat brain microsomal fraction (bilirubin formation); type: biochemical; settings: mean of triplicate ± SD
T2 construct: selected to use the most native (i.e., closest to in vivo) forms of HO-1 and HO-2; from tissue; host or cells: rat brain (male Sprague-Dawley), microsomal fraction
T2 sequence (P23711 1-315): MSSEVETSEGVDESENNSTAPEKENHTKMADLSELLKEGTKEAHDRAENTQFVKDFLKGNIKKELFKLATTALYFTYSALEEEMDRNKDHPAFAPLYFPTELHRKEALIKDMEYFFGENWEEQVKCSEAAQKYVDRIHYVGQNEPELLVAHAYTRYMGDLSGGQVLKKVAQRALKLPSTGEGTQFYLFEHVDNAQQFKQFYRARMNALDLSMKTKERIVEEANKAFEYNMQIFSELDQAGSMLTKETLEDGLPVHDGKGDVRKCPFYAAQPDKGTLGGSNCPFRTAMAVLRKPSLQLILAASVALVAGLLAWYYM
Experimental: as §1, §2, §3

U87MG cells = assay: MTT cell viability assay, U87MG; type: cell-based, human; settings: 48 h
Experimental: (§4) Experiments were performed on human GBM cell lines U87MG (ATCCC number #HTB-14) and A172 (ATCCC #CRL-1620) on DU145 (ATCC HTB-81) and human lung adenocarcinoma A549 (ATCC CCL-185-LUC2). All cell lines were obtained from the American Type Culture Collection (ATCC, Rockville, MD). Cells were grown in Dulbecco’s modified Eagle’s medium (DMEM) supplemented with 10% of heat-inactivated fetal bovine serum (FBS), 100 U/mL of penicillin, and 100 μg/mL of streptomycin (Sigma-Aldrich, Steinheim, Germany). Cells were incubated at 37 °C in a humidified atmosphere with 5% CO2.
(§5) The effect of selected compounds 7i and 7l–p on cell viability was assessed by performing an MTT assay. Cells were seeded into 96-well plates at a density of 7 × 10^3 cells/well in 100 μL of culture medium. After 24 h, cells were treated with selected compounds at three different concentrations (1 μM, 10 μM, and 50 μM) for 48 h. Following treatments, 0.5 mg/mL of 3-[4,5-dimethylthiazol-2-yl]-2,5-diphenyltetrazolium bromide (MTT) (Sigma-Aldrich) was added to each well and incubated for 4 h at 37 °C. Finally, dimethyl-sulfoxide (DMSO) was used to dissolve formazan salts, and absorbance was measured at 570 nm in a microplate reader (Biotek Synergy-HT). Eight replicate wells were used for each group.

A172 cells = assay: MTT cell viability assay, A172; type: cell-based, human; settings: 48 h
Experimental: as §4, §5

[1] = all tested concentrations (1, 10, 50 μM)
[2] = at both concentrations 1 and 10 μM

CN(C(=O)Cn1ccnc1)C(c1ccccc1)c1ccc(Cl)cc1 (stereo not drawn) [7l, N-((4-Chlorophenyl)(phenyl)methyl)-2-(1H-imidazol-1-yl)-N-methylacetamide]
HO-1 vs HO-2 selectivity (in words) (HO-1): superimposable HO-1 and HO-2 IC50 values
IC50 (HO-1): 950 ± 40 nM
SI (HO-2/HO-1) (HO-1): 1.3
IC50 (HO-2): 1200 ± 70 nM
cell viability reduction (U87MG cells; at all of the tested concentrations (1, 10, 50 μM)): more than 60%
cell viability reduction (in words) (A172 cells; [1]): remarkable reduction of cell viability

CN(C(=O)Cn1ccnc1)C(c1ccccc1)c1ccc(I)cc1 (stereo not drawn) [7n, 2-(1H-Imidazol-1-yl)-N-((4-iodophenyl)(phenyl)methyl)-N-methylacetamide]
fold more selective for the inducible isoform (HO-1 over HO-2) (HO-1): about 48 fold
IC50 (HO-1): 950 ± 90 nM
SI (HO-2/HO-1) (HO-1): 48.3
IC50 (HO-2): 45900 ± 1670 nM
cell viability reduction (U87MG cells; [2]): more than 30%
cell viability reduction (in words) (A172 cells; 10 μM): milder activity
cell viability reduction (in words) (A172 cells; 50 μM): only at 50 μM
melting point: 69 to 71 °C

CN(C(=O)Cn1ccnc1)C(c1ccccc1)c1ccc(OCc2ccccc2)cc1 (stereo not drawn) [7o, N-((4-(Benzyloxy)phenyl)(phenyl)methyl)-2-(1H-imidazol-1-yl)-N-methylacetamide]
fold more selective for the inducible isoform (HO-1 over HO-2) (HO-1): 9 fold
IC50 (HO-1): 1200 ± 110 nM
SI (HO-2/HO-1) (HO-1): 9.3
IC50 (HO-2): 11200 ± 180 nM
cell viability reduction (U87MG cells; [2]): around 20%
cell viability reduction (in words) (A172 cells; [1]): remarkable reduction of cell viability
melting point: 119 to 121 °C
